Source: patent publication US6046207A, “Benzopyranopyrrole and benzopyranopyridine α-1 adrenergic compounds” (priority 1997, dated 2000)
pKi: −log10 of the molar value. Like-named read-outs stand apart in the source and are kept apart here.

Columns and labels:
[1] = system: α-1 adrenoreceptors; conditions: cited from earlier work; for urinary flow rates and subjective symptom scores, longer term studies: BPH patients
[2] = biological target: T1, α-1B adrenoreceptor (rat spleen) (Rattus norvegicus, UniProt P15823); assay: Functional antagonism: inhibition of phenylephrine-induced contraction of rat spleen; set-up: species or system tissue; conditions: for more potent effect on spleen smooth muscle: rat spleen versus the other tissues, in words
T1 construct: contraction of rat spleen; from tissue; host or cells: rat spleen
T1 sequence (P15823 1-515): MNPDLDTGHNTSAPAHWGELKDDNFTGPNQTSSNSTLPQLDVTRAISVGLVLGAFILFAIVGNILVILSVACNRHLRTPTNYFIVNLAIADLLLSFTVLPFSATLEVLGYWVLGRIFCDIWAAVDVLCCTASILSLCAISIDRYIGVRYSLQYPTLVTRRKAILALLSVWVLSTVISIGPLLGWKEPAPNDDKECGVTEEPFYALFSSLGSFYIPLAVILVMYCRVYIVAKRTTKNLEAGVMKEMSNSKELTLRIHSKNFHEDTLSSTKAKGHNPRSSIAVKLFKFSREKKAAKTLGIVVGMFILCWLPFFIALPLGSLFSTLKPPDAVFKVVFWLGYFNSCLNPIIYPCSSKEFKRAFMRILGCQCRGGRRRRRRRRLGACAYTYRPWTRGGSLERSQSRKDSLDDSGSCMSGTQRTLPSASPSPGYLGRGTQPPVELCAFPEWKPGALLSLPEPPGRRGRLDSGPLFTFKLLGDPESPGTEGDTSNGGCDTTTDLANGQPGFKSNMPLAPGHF
Source text: (§1) Functional assays indicative of pharmacologically defined α-1 adrenoreceptors were used to further characterize compounds. […] For each of these models, agonist dose response curves were repeated against increasing concentrations of test agent to derive a Schild plot [log ([…]) against log (molarity of test agent)] to determine the pA2.

[3] = biological target: T2, α-1b (hamster) adrenoreceptor (Mesocricetus auratus, UniProt P18841); assay: biochemical; conditions: read-out: Radioligand Binding Ki, 1b (Hamster)
T2 sequence (P18841 1-515): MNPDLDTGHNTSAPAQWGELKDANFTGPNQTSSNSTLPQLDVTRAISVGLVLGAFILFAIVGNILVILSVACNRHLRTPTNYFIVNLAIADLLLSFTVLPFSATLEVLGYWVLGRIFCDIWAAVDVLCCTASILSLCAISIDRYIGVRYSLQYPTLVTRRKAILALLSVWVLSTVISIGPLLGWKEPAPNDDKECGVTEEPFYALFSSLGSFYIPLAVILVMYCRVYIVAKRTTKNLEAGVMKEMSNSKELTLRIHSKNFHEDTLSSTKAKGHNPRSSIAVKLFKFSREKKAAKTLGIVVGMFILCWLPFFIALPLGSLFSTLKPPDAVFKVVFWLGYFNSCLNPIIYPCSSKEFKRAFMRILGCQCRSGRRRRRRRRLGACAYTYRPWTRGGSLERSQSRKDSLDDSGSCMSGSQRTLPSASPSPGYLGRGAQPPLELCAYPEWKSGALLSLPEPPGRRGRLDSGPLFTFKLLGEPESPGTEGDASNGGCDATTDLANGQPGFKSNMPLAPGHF
Method: (§2) In the following, for purposes of discussing alpha-1 adrenoreceptor subtypes, the IUPHAR convention of using lower case letters to define molecular clones and upper case letters to indicate pharmacologically defined adrenoreceptors has been followed. Moreover, the newly recommended nomenclature for alpha-1 (α1a, α1b, α1d) has been used.
(§3) Additionally, binding affinity against the pharmacologically defined α-1A adrenoreceptor (rat submaxillary gland) was measured.
(§4) The cDNA clones encoding the α-1 adrenoreceptors (α-1a, α-1b, and α-1d) were obtained from TULCO (Triangle Universities Licensing Consortium, Research Triangle Park, NC) and inserted into the eukaryotic expression vector SnaB30. In this vector, expression of the adrenoreceptor gene is under the transcriptional control of an SV40 early promoter. Positive drug selection is provided by a neomycin-resistance gene. Mouse fibroblast cells (LTK) were transfected with the α1 expression plasmids and grown in Dulbecco's modified Eagle's medium (DMEM) containing 10% fetal calf serum and 30 μM G418. Stable G418-resistant parental lines were generated, with successful expression of adrenoreceptor protein monitored using radioligand binding techniques. Stable single cell clones derived from the parental lines were screened in adrenoreceptor binding assays to identify clones having high adrenoreceptor density. […]

[4] = biological target: T3, α-1a (bovine) adrenoreceptor (Bos taurus, UniProt P18130); assay: Radioligand binding, [3H]-prazosin displacement, cloned α-1a expressed in LTK cells; conditions: cloned bovine α-1a, LTK cell membranes, [3H]prazosin 0.2 nM
T3 construct: expressed in transfected cells; host or cells: mouse fibroblast LTK cells, vector SnaB30, cDNA from TULCO
T3 sequence (P18130 1-466): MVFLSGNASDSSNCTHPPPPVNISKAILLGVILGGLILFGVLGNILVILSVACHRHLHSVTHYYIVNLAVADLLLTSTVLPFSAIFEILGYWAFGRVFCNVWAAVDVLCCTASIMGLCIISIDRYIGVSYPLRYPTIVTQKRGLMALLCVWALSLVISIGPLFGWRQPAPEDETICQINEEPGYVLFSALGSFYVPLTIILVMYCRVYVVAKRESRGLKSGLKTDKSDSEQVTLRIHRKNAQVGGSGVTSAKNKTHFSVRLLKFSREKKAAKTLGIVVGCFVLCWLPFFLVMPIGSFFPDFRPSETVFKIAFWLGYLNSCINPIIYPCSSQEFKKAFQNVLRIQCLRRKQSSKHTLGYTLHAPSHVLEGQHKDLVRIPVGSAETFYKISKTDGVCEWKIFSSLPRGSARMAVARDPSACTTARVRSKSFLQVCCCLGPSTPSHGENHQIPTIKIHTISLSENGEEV
Method: as §2, §3, §4

[5] = biological target: T4, α-1A adrenoreceptor (rat submaxillary gland) (Rattus norvegicus, UniProt P43140); assay: Radioligand binding, [3H]-prazosin displacement, α-1A (rat submaxillary gland); conditions: [3H]prazosin 0.2 nM
T4 construct: Rat submaxillary glands were used for α-1A adrenoreceptors; from tissue; host or cells: rat submaxillary gland membranes
T4 sequence (P43140 1-466): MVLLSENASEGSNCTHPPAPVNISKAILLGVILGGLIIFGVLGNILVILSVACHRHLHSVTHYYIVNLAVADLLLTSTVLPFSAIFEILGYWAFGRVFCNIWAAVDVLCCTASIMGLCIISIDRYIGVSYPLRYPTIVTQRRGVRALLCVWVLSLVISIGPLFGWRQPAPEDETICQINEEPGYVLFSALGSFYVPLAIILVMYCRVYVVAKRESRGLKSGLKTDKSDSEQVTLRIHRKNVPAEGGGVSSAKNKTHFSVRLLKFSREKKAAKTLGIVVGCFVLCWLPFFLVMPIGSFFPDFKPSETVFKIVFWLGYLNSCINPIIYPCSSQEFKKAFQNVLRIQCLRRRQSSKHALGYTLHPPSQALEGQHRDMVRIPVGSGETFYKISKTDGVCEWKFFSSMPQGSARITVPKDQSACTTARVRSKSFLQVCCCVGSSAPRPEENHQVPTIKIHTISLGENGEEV
Method: as §2, §3
Cells were detached from the roller bottles by incubating for 15 minutes at 37° C. in a Tris-EDTA solution (10 mM Tris, 100 mM NaCl, 1 mM EDTA, pH=7.4). The cell suspension from each roller bottle was decanted into tared centrifuge tubes and kept on ice. An aliquot of each cell suspension was generally taken for cell counting. […] The supernatant was decanted and the pellet weighed to determine the wet weight of cells. Cells were washed a final time in 40 vol 5 mM Tris-HCl, 5 mM EDTA, pH=7.7, and centrifuged at 40,000×G for 10 minutes. Cells were homogenized in 10 mL of 50 mM Tris-HCl, 5 mM EDTA (pH=7.4) and diluted to 40 mL/tube. Homogenates were centrifuged at 40,000×G for 10 minutes. […]
Receptor binding assays for α-1 adrenoreceptors were performed essentially as described by Greengrass and Bremner (Eur. J. Pharmacol. 55: 323-326 (1979)). […] Radioactivity was determined by standard liquid scintillation techniques.

[6] = biological target: T5, α-1A adrenoreceptor (rat vas deferens) (Rattus norvegicus, UniProt P43140); assay: Functional antagonism: inhibition of phenylephrine-induced contraction of rat vas deferens; set-up: species or system tissue; conditions: Schild
T5 construct: contraction of rat vas deferens; from tissue; host or cells: rat vas deferens
T5 sequence (P43140 1-466): T4 sequence (P43140 1-466)
Source text: as §1

| SMILES | urinary flow rates and subjective symptom scores, longer term studies [1] | more potent effect on spleen smooth muscle [2] | also measured |
| --- | --- | --- | --- |
| O=C(NC1CCN(CCc2c[nH]c3ccccc23)CC1)c1ccccc1 [indoramin] | significant improvements in urinary flow rates and subjective symptom scores |  |  |
| COc1cccc2c1[C@@H]1CN(CCCCn3c(=O)[nH]c4c(sc5nc(Cl)ccc54)c3=O)C[C@@H]1CO2 [Example 32, 3-[4-((3aR,9bR)-cis-9-Methoxy-1,2,3,3a,4,9b-hexahydro-[1]-benzopyrano[3,4-c]pyrrol-2-yl)butyl]-7-chloro-pyrido[3',2':4,5]thieno[3,2-d]pyrimidine-2,4(1H,3H)-dione] |  |  | In Vitro Characterization (pA2), Rat Spleen ([2]; rat spleen, phenylephrine, Schild): 7.24; pKi ([3]; cloned hamster α-1b, LTK cell membranes, [3H]prazosin 0.2 nM): 8.00; pKi [4]: 10.03; pKi [5]: 9.00; In Vitro Characterization (pA2), Rat Vas [6]: 9.46 |
| COc1cc2nc(N3CCN(C(=O)C4CCCO4)CC3)nc(N)c2cc1OC (centres unmarked) [Terazosin, terazosin] | significant improvements in urinary flow rates and subjective symptom scores | a more potent effect on spleen smooth muscle by approximately an order of magnitude |  |
| COc1ccc2c(c1)[C@@H]1CN(CCCn3c(=O)[nH]c4c(sc5ncccc54)c3=O)C[C@@H]1CO2 (racemic) [Example 77, 3-[3-((±)-cis-8-Methoxy-1,2,3,3a,4,9b-hexahydro-[1]-benzopyrano[3,4-c]pyrrol-2-yl)propyl]-pyrido[3',2':4,5]thieno[3,2-d]pyrimidine-2,4(1H,3H)-dione] |  |  | pKi [3]: 5.00 |
| COc1cc2nc(N3CCN(C(=O)c4ccco4)CC3)nc(N)c2cc1OC [Prazosin, prazosin] | significant improvements in urinary flow rates and subjective symptom scores | a more potent effect on spleen smooth muscle by approximately an order of magnitude | urinary incontinence during antihypertensive treatment ([1]; women, antihypertensive treatment): urinary incontinence developed in women |
| COc1cc2nc(N3CCN(C(=O)C4COc5ccccc5O4)CC3)nc(N)c2cc1OC (centres unmarked) [Doxazosin, doxazosin] | significant improvements in urinary flow rates and subjective symptom scores | a more potent effect on spleen smooth muscle by approximately an order of magnitude |  |
